In patent US20110251188A1, “ACENAPHTHO HETEROCYCLE COMPOUNDS, CYCLODEXTRIN INCLUSION COMPOUNDS AND COMPLEXES, AND USES IN THE MANUFACTURES OF BH3 PROTEIN ANALOGUE, BCL-2 FAMILY PROTEIN INHIBITORS THEREOF” (DALIAN UNIVERSITY OF TECHNOLOGY, priority 2008, published 2011):

Experiments:
[1] = test system: Bcl-2; assay: Western blotting, inhibition (downregulation) of Bcl-2 in tumor cells, Example 23; assay type: cell-based; settings: for inhibition against Bcl-2: Western blotting, tumor cells
Protocol: (§1) The interest protein was detected by the corresponding antibody. The expression of the interest protein in the cells was detected by horseradish peroxidase-labeled secondary antibodies in combination with ECL coloration method. […] The concentration of the protein bands in the Western images were carried out semiquantitative analysis and normalization treatment with KODAK Gel Logic 1500 imaging system software.

[2] = test system: hepatoma carcinoma cells H22; assay: in vivo tumor model, subcutaneous H22 tumor in Kunming mice; settings: for tumor inhibition rate: experimental group 2: peritoneal injection of DMSO solution, 0.3 mg/kg BW every other day, 10 days, tumor volume on the fortieth day
Protocol: The Kunming mice (in China) were randomly divided into groups, with 10 mice in each group. The cultivated hepatoma carcinoma cells H22 were inoculated subcutaneously in the oxter of the mice with 200 μL/mouse. After bearing the cancer cells for five days, the subcutaneous tumor was formed. Then the compound 3-thiomorpholinyl-8-oxo-8H-acenaphtho[1,2-b]pyrrole-9-carbonitrile and γ-cyclodextrin inclusion compound thereof were given by peritoneal injection, and the compound to be detected included by γ-cyclodextrin was given by oral administration. The detection conditions comprise:
Blank control group: the mice were not treated in any manner after the bearing cancer;
Control group (1): the mice were given a peritoneal injection of DMSO solution every other day after the bearing cancer, 10 days in total;
Control group (2): the mice were given a peritoneal injection of cyclodextrin solution every other day after the bearing cancer, 10 days in total;
Experimental group (1): the mice were given a peritoneal injection of DMSO solution equivalent to 0.03 mg/kg BW compound every other day after the bearing cancer, 10 days in total;
Experimental group (2): the mice were given a peritoneal injection of DMSO solution equivalent to 0.3 mg/kg BW compound every other day after the bearing cancer, 10 days in total;
Experimental group (3): the mice were given a peritoneal injection of inclusion compound water solution equivalent to 0.3 mg/kg BW compound every other day after the bearing cancer, 10 days in total;
Experimental group (4): the mice were given an intragastric administration of inclusion compounds water solution equivalent to 0.3 mg/kg BW compound every other day after the bearing cancer, 10 days in total;
During the experimental period, the length-diameter (a) and short diameter (b), which was perpendicular to the length-diameter, of the tumor were detected twice every week. The gross tumor volume was determined according to the formula: ½ab^2. The survival time of the animal was observed. The tumor inhibition rate was calculated by the tumor volume on the fortieth day.

[3] = test system: MCF-7 cells; assay: cytotoxicity depending on BAX/BAK, MTT, MCF-7 cells with or without BAX/BAK interfering plasmid; assay type: cell-based; settings: MCF-7 cells, 48 hours, MTT
Protocol: 3 ng of BAX/BAK interfering plasmid was transfected into MCF-7 cells by using calcium phosphate coprecipitation method, 24 hours later, the cells were collected. The expressions after the BAX and BAK proteins interfered with RNA was detected by Western, and the cell groups without plasmid transfection were treated similarly and were set as the control group. The transfected cells were inoculated in a 96-well plate (1×10^5 cells/well), the control experiment of the cell group without plasmid transfection was carried out in parallel. The compound 3-thiomorpholinyl-8-oxo-8 H-acenaphtho[1,2-b]pyrrole-9-carbonitrile to be detected was added thereinto according to the concentration gradient designed before the experiment. 48 hours later, the cellular vitality was detected by MTT. The experimental results were shown in FIG. 6, Gossypol as nonspecific BH3 analogue was treated in parallel.

[4] = molecular target: GST-Bcl-2 protein; assay: fluorescence polarization assay, competitive binding against FAM-Bid peptide; settings: GST-Bcl-2 40 nM, FAM-Bid 5 nM, 4 hours of incubation; read-out: competitive binding constant (Ki)
Protocol: A Bid BH3 peptide (amino acids: 79-99: […]) having 21 amino acids was synthesized and marked with 6-carboxyfluorescein N-succinimidyl ester (FAM) as fluorescent tag (FAM-Bid) at the N-terminal. The reaction system used in the competitive binding experiment was GST-Bcl-2 protein (40 nM) or Mcl-1 protein, which was dissolved in the reaction buffer (100 mM K3PO4, pH 7.5; 100 μg/ml bovine γ albumin; 0.02% sodium azide) together with FAM-Bid polypeptide (5 nM). In a 96-well plate, 100 μL of the reaction system was added into each well. Then 1 μL different concentration of 3-thiomorpholinyl-8-oxo-8H-acenaphtho[1,2-b]pyrrole-9-carbonitrile mother solution to be detected dissolved in DMSO was added thereinto until the final concentration met the experimental design requirements. Meanwhile, two control groups were established, one with the reaction system only contains Bcl-2 or Mcl-1 and FAM-Bid (equivalent to 0% inhibition rate), the other with the reaction system only containing FAM-Bid peptide. After 4 hours of incubation, the 96-well plate was detected by enzyme-labelled meter. The fluorescent polarization value (mP) was tested at […]. Ki value was deduced according to calculation formula. The competitive binding constant between the compound and Bcl-2 was 310 nM.

[5] = test system: Mcl-1; assay: Western blotting, inhibition (downregulation) of Mcl-1 in tumor cells, Example 23; assay type: cell-based; settings: for inhibition against Mcl-1: Western blotting, tumor cells
Protocol: as §1

[6] = molecular target: T1, interaction between Bcl-2 and Bax (Homo sapiens, UniProt P10415); assay: intracellular fluorescence polarization energy transfer (FRET), Hela cells transfected with Bcl-2-CFP and Bax-YFP; assay type: cell-based
T1 construct: expressed in transfected cells; host or cells: Hela cells
Protocol: 24 hours later (please refer to FIG. 2), the cells were washed with PBS for three times. The fluorescence value was detected by GENIOS fluorescence enzyme-labelled meter (TECAN, Swiss). In time-dependent experiment, the transfected cells were inoculated in a 6-well plate, after that, 40 μM of the compound was added thereinto. 3, 6 and 24 hours later (FIG. 3), the fluorescence intensities were detected by plate reader. As for the cell group in which only Bcl-2-CFP plasmid was transfected, the values at 475 nm emission wave length and 433 nm excitation wave length were recorded. As for the cell group in which only Bax-YFP plasmid was transfected, the values at 527 nm emission wave length and 505 nm excitation wave length were recorded. […] The ratio of fluorescence intensity at 527 nm and 475 nm emission wave lengths was FRET. The FRET for the control group in which the plasmid was solely transfected was set as 1.0. […] The cellular vitality was detected by MTT method.
Wherein the concentration and time meant that the detected compound interfered with the interaction between Bcl-2 and Bax at the concentration for the time period.

[7] = test system: Bcl-2; assay: Western blotting, compounds compared with cyclodextrin inclusion compounds and complexes, Example 24; assay type: cell-based; settings: Table 9; 10 μM or equivalent of inclusion compound, 24 hours
Protocol: (§2) The cells were inoculated in a 6-well plate (2×10^5 cells/well). In the compound group, the compound 3-thiomorpholinyl-8-oxo-8H-acenaphtho[1,2-b]pyrrole-9-carbonitrile was dissolved into DMSO until the final concentration reached 10 μM. In the inclusion group, γ-cyclodextrin inclusion, which had been dissolved into water and was equivalent to 10 μM of the compound, was added thereinto. 24 hours later, the cells were washed with PBS for three times, then the cell sample was collected and cracked with 1×10^6/50 μl cell lysis solution (62.5 mM Tris-HCL pH 6.8; 2% SDS; 10% glycerol; 50 mM DTT; 0.01% bromphenol blue) at low temperature, then the solution was centrifuged and the protein supernatant was collected. The sample was boiled at 100° C. for 5 minutes and then was separated by electrophoresis on 12% SDS-PAGE and transferred. The interest protein was detected by the corresponding antibody. The expression of the interest protein in the cells was detected by horseradish peroxidase-labeled secondary antibodies in combination with ECL coloration method. […] The concentration of the protein bands in the Western figures were carried out semiquantitative analysis and normalization treatment with KODAK Gel Logic 1500 imaging system software.

[8] = test system: Mcl-1; assay: as above; assay type: cell-based; settings: Table 8; 10 μM or equivalent of inclusion compound, 24 hours
Protocol: as §2

T1 sequence (P10415 whole entry): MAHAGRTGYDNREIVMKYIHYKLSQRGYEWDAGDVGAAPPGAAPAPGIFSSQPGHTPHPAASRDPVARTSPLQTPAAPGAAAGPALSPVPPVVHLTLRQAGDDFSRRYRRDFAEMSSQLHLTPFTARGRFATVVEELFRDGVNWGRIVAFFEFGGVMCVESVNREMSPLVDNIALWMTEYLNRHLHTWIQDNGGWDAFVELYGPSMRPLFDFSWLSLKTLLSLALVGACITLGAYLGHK

SMILES | inhibition against Bcl-2 [1] | average life (survival time) of the animal ([2]; compound group, control group 28±2.1 days) [days] | tumor inhibition rate [2] | dependence of cytotoxicity on BAX/BAK [3] | Ki [4] [nM] | inhibition against Mcl-1 [5] | Time for which the compound interfered with the interaction between Bcl-2 and Bax ([6]; goes with the concentration of E11) [h] | Concentration at which the compound interfered with the interaction between Bcl-2 and Bax ([6]; goes with the time of E12) [µM] | downregulation of Bcl-2 protein, semiquantitative analysis (band concentration, control = 1) ([1]; 2 hours) | downregulation of Bcl-2 protein, semiquantitative analysis (band concentration, control = 1) ([1]; 6 hours) | downregulation of Bcl-2 protein, semiquantitative analysis (band concentration, control = 1) [7] | downregulation of Mcl-1 protein, semiquantitative analysis (band concentration, control = 1) [8] | downregulation of Mcl-1 protein, semiquantitative analysis (band concentration, control = 1) ([5]; 6 hours) | downregulation of Mcl-1 protein, semiquantitative analysis (band concentration, control = 1) ([5]; 12 hours) | downregulation of Mcl-1 protein, semiquantitative analysis (band concentration, control = 1) ([5]; 18 hours) | downregulation of Mcl-1 protein, semiquantitative analysis (band concentration, control = 1) ([5]; 24 hours)
N#CC1=C2C(=NC1=O)c1cccc3c(N4CCSCC4)ccc2c13 [3-thiomorpholinyl-8-oxo-8H-acenaphtho[1,2-b]pyrrole-9-carbonitrile] | had the inhibition against these two proteins | 33 ± 3.1 | 22.3% | cytotoxicity of absolute dependence on BAX/BAK | 310 | had the inhibition against these two proteins | 3 | 2 | – | – | – | – | – | – | – | –
N#CC1=C2C(=NC1=O)c1ccc(OC3CCOCC3)c3cccc2c13 [4-(tetrahydro-2H-pyranyl-4-oxo)-8-oxo-8H-acenaphtho[1,2-b]pyrrole-9-carbonitrile] | had the inhibition against Bcl-2 and Mcl-1 proteins | – | about 40% | – | – | had the inhibition against Bcl-2 and Mcl-1 proteins | – | – | 0.71 | 0.38 | 0.77 | 0.80 | 0.99 | 0.99 | 0.61 | 0.29
